Measurements published in patent EP4139472B1, “A METHOD FOR BIOTESTING OF A CONDENSED PHASE SUBSTANCES AND/OR MIXTURES ECOTOXICITY AND USE OF THE METHOD IN ECOTOXYCOLOGY” (Uniwersytet Jana Dlugosza w Czestochowie, priority 2020, dated 2021).
Several values for one entry are separate records, joined by “and”; a condition that tells them apart may be missing. Identical values can stand only once. Like-named read-outs stand apart in the source and are kept apart here.

Tested on: A. fischeri bacteria
Assay: Bioluminescence inhibition of A. fischeri, modified Microtox Basic Solid Phase Test (synthetic sample with inert auxiliary substance)
Format: cell-based, Aliivibrio fischeri
Details: for EC50: Aliivibrio fischeri
Excerpt: According to the invention, instead of a homogeneous solid sample with a relatively large mass (7 g in the Microtox® Basic Solid Phase Test), which is often unreachable for laboratory measurements of expensive or innovative materials, a so-called synthetic sample (as opposed to natural samples, i.e. soils and bottom sediments) of the same mass, containing the tested substance and an inert auxiliary substance (so called solid matrix) is being created. As a result, the synthetic sample simulates the soil contaminated with the tested substance. The synthetic sample prepared in such a way can be dispersed in the diluent and processed further according to the Microtox® Basic Solid Phase Test protocol. The Microtox® Basic Solid Phase Test protocol provides a series of steps covering, in turn: • suspending 7 g of the test sample in 35 ml of diluent in a 50 ml beaker, mixing for 10 min; • taking 2 mL of the suspension described above, while stirring it, into an appropriate cuvette; • performing a series of 1:2 dilutions of the test sample using the diluent; • reconstitution of freeze-dried Aliivibrio fischeri bacteria; • preparation and 15 min incubation of the reagent (10 µL of reconstituted bacteria and 0.5 mL of diluent); • bioluminescence measurement for time zero (bioluminescence before contact with the sample); • adding the reagent to each test sample and to the control cuvette; • incubation for 5 min, measurement of bioluminescence after 5 min incubation of bacteria with the sample; • incubation for another 10 min, measurement of bioluminescence after 15 min incubation of bacteria with the sample. The Microtox® protocol provides for the use of a 30-well incubator block maintaining a temperature of 15° C in the wells of the sample cuvettes and 5.5° C in the well of the bacterial suspension. According to the invention, a sample containing the substance to be test and an auxiliary substance is subjected to the procedure provided for in the Microtox® Basic Solid Phase Test. The pre-suspension is made by mixing the synthetic sample with a diluent (Microtox® Solid Phase Diluent: 3.5% aqueous NaCl solution) in appropriate proportions provided for in the measurement protocol, for example 7 g of the sample is mixed with 35 mL of diluent (weight/volume ratio of the sample to diluent is 1:5 g/mL), but after validation it is possible to use dispersions of any proportion (preferably from 1:4 g/mL to 1:6 g/mL) and scale (preferably samples weighing 3-10 g depending on capacity of the equipment used). In the case of hydrophobic chemicals, it is allowed to suspend them in a mixture of methanol with a diluent (e.g. 4% methanol solution) to increase their solubility. Then, the suspension is stirred in a tall beaker on a stirrer so that, as a result of mixing, the vortex always has the same, repeatable height, equal to half the height of the liquid level. A representative sample for further dilutions is drawn with an automatic pipette while the suspension is stirred, from half the depth of the suspension according to the Microtox® protocol. The further steps in the measurement (including but not limited to dilution, sampling, luminescence measurement, etc.) also follow the Microtox® Basic Solid Phase Test Procedure. […] A representative sample for further dilutions was taken from half the depth of the suspension without stirring interruption according to the Microtox® Basic Solid Phase Test protocol. […] The measurements were carried out in triplicate and the EC50 values were determined after 5 and 15 minutes of exposure. The obtained results with 95% confidence intervals, as well as the correlation coefficients are summarized below, in Table 2. Table 2. EC50 values [mg/L] obtained after 5 and 15 minutes exposure of A. fischeri bacteria to pure valsartan along with the corresponding confidence intervals.

CCCCc1nc(Cl)c(CO)n1Cc1ccc(-c2ccccc2-c2nn[nH]n2)cc1 [losartan potassium]
EC50 5 min (5 min exposure, 0.200 g losartan potassium + 5.600 g quartz sand in 35 mL diluent (1:[…]), single replicate, 95% confidence interval in brackets): 594.25 (343.09-1028.98) mg/L and 667.23 (490.17-908.21) mg/L
EC50 15 min (15 min exposure, 0.200 g losartan potassium + 5.600 g quartz sand in 35 mL diluent (1:[…]), single replicate, 95% confidence interval in brackets): 694.10 (541.64-889.82) mg/L and 629.33 (172.93-2289.90) mg/L
EC50 (5 min, 5 min exposure, 0.200 g losartan potassium + 5.600 g quartz sand in 35 mL diluent (1:[…]), single replicate, 95% confidence interval in brackets, read-out: EC50 5 min): 490 mg/L
EC50 (5 min, 5 min exposure, pure losartan potassium + quartz sand, mean of three replicates, read-out: EC50 5 min, Mean): 584 ± 72.7 mg/L
EC50 (0.25 h, 15 min exposure, 0.200 g losartan potassium + 5.600 g quartz sand in 35 mL diluent (1:[…]), single replicate, 95% confidence interval in brackets, read-out: EC50 15 min): 654 mg/L
EC50 (0.25 h, 15 min exposure, pure losartan potassium + quartz sand, mean of three replicates, read-out: EC50 15 min, Mean): 659 ± 26.7 mg/L

CCCCC(=O)N(Cc1ccc(-c2ccccc2-c2nnn[nH]2)cc1)[C@H](C(=O)O)C(C)C [valsartan]
EC50 5 min (5 min exposure, 0.160 g pure valsartan + 6.840 g quartz sand in 35 mL diluent, single replicate, 95% confidence interval in brackets): 172.06 (102.02-290.17) mg/L and 88.31 (83.90-92.91) mg/L
EC50 15 min (15 min exposure, 0.160 g pure valsartan + 6.840 g quartz sand in 35 mL diluent, single replicate, 95% confidence interval in brackets): 341.70 (338.33-358.97) mg/L and 242.80 (103.75-568.26) mg/L and 120.04 (99.20-145.28) mg/L
EC50 (5 min, 5 min exposure, 0.160 g pure valsartan + 6.840 g quartz sand in 35 mL diluent, single replicate, 95% confidence interval in brackets, read-out: EC50 5 min): 169 mg/L
EC50 (5 min, 5 min exposure, pure valsartan + quartz sand, mean of three replicates, read-out: EC50 5 min, Mean): 143 ± 38.8 mg/L
EC50 (0.25 h, 15 min exposure, pure valsartan + quartz sand, mean of three replicates, read-out: EC50 15 min, Mean): 235 ± 90.7 mg/L
